In patent US5516790A, “Synthesis and application of alkyl-substituted dibenzofurans as antitumorigenic agents” (Texas A&M University System Technology Licensing Office, priority 1994, dated 1996):
Read-outs that look alike come from different tables or passages of the source.

Key:
[1] = test system: nuclear ER; conditions: cited from earlier work
[2] = test system: estrogen receptor; conditions: rat, in vivo; cited from earlier work
[3] = test system: progesterone receptor; conditions: rat, in vivo; cited from earlier work
[4] = test system: progesterone receptor (PR); assay type: in vivo, female Sprague/Dawley rats
Experimental: (§1) TCDD or MCDF was co-administered with a second dose of estradiol and the animals were killed 48-hours later. A second group of animals was similarly treated with corn oil, TCDD, MCDF, or TCDD plus MCDF, all administered in corn oil at 10 ml/kg and terminated 72 hours later.
(§2) The animals were terminated by cervical dislocation. Livers were perfused with ice-cold TEDG buffer (10 mM Tris-HCl, 1.5 mM EDTA-4Na, 1 mM dithiothreitol, 10% glycerol (v/v), pH 7.4). Following perfusion in situ, livers were removed, weighed, and homogenized in ice-cold TEDG buffer. Uteri were also removed, weighed, and homogenized in ice-cold buffer. The homogenates were then centrifuged at 800×g […] for 15 minutes and the nuclear pellets were stored at -80° C. The supernatants were further centrifuged at 180,000×g for 1.5 hour. The cytosolic supernatant was also stored at -80° C. Estrogen and progesterone receptor levels were determined within 7 days.
(§3) Estrogen and progesterone receptor levels were determined by the hydroxyapatite assay as described by Clark et al. (J. Steroid, Biochem., 16, 323-328 (1982)). […] Following the incubations, samples were counted and specific binding was calculated by subtraction of nonspecific from total binding. Assuming one steroid molecule binds to one estrogen/progesterone receptor, the number of moles of receptor can be calculated given the specific activity of the radioligand. […] Significant differences were determined by ANOVA.

[5] = test system: estrogen receptor (ER); assay type: in vivo, female Sprague/Dawley rats
Experimental: as §1, §2, §3

[6] = test system: female rat uterus; assay type: in vivo, female Sprague/Dawley rats
Experimental: as §1, §2

[7] = test system: nuclear ER; experiment: Nuclear ER levels in MCF-7 cells; assay type: cell-based, human
Experimental: MCF-7 cells, obtained from American Type Culture Collection (Rockville, Ma.), were maintained at 37° C. in closed Corning T-25, 75 or 150 cm^2 flasks (Corning Glassworks, Corning, N.Y.) and passaged in logarithmic growth phase.
For the 2,3,7,8-TCDD antiestrogenicity studies, cells were treated 24 hours prior to harvesting with various concentrations of 2,3,7,8-TCDD (0.1 nM to 100 nM 2,3,7,8-TCDD). Interactive effects between 2,3,7,8-TCDD and estradiol were conducted using these same concentrations of 2,3,7,8-TCDD and 10 nM estradiol. […]
MCF-7 cells from a single near confluent T-25 flask were incubated at 37° C. for 0.5 hours prior to harvesting with 10 nM 2,4,6,7-[^3H]-estradiol. The medium was then decanted and the cells were rinsed once with Hanks' balanced salt solution containing 1 mM EDTA. The cells were collected by centrifugation, washed gently in 2 ml of TEDG buffer and homogenized in 300 μl of TEDG buffer containing protease inhibitors [soybean trypsin inhibitor 5 mg/ml (Sigma), leupetin 1 mg/ml (Sigma), and phenylmethylsulfonyl fluoride 1 mg/ml (Sigma) by 40 strokes of a Dounce homogenizer. The homogenate was centrifuged at 800×g for 10 minutes. The crude nuclear pellet was resuspended in 300 μl of TEDGK buffer (10 mM Tris-HCl, 1.5 mM EDTA-4Na, 10 mM dithiothreitol, 10% (v/v) glycerol, 0.8 M KCl, pH 8.5 at 4° C.). The nuclear ER levels were then determined as described below.
The nuclear extract previously obtained was incubated with 10 nM [^3 H]-estradiol plus or minus radioinert diethylstilbestrol for 1 hour at 0-4° C., with resuspension by agitation every 15 minutes. The sample was then centrifuged at 180,000×g for 30 minutes, then 200 μl of the supernatant obtained was layered onto linear 1-20% sucrose gradients prepared in TEDGMK buffer. As before, the gradients were centrifuged at 406,000×g for 2.5 hours in a vertical rotor. Following centrifugation, 30 fractions of […] were collected and the radioactivity in each sample was determined.

For `Cc1cc(Cl)cc2c1oc1cc(Cl)cc(Cl)c12` [MCDF, 6-methyl 1,3,8-trichlorodibenzofuran], the “17β-estradiol-induced accumulation of nuclear ER levels in MCF-7 cells” value [1] is listed as “inhibits”, the “upregulation of uterine nuclear and cytosolic estrogen receptor levels by 17β-estradiol” value [2] is listed as “inhibits” and the “uterine and hepatic cytosolic and nuclear estrogen receptor levels” value [2] is listed as “dose response decrease”. For the same molecule, the “upregulation of uterine nuclear and cytosolic progesterone receptor levels by 17β-estradiol” value [3] was “inhibits”, the “uterine and hepatic cytosolic and nuclear progesterone receptor levels” value [3] was “dose response decrease” and the “Hepatic PRc” value ([4]; MCDF 10 μmol/kg) was 74.3 ± 8.1 fmol/mg protein. The “Hepatic PRn” value ([4]; MCDF 10 μmol/kg) was 8.9 ± 1.5 fmol/mg protein, the “Uterine PRc” value ([4]; MCDF 10 μmol/kg) was 980 ± 34.6 fmol/mg protein and the “Uterine PRn” value ([4]; MCDF 10 μmol/kg) was 390 ± 31.6 fmol/mg protein. For the same molecule, the “Hepatic PRc” value ([4]; MCDF 50 μmol/kg) was 66.0 ± 7.1 fmol/mg protein, the “Hepatic PRn” value ([4]; MCDF 50 μmol/kg) was 7.6 ± 1.0 fmol/mg protein and the “Uterine PRc” value ([4]; MCDF 50 μmol/kg) was 886 ± 20.1 fmol/mg protein. For the same molecule, the “Uterine PRn” value ([4]; MCDF 50 μmol/kg) was 290 ± 30.2 fmol/mg protein, the “Hepatic PRc” value ([4]; MCDF 100 μmol/kg) was 40.2 ± 3.2 fmol/mg protein and the “Hepatic PRn” value ([4]; MCDF 100 μmol/kg) was 6.8 ± 1.0 fmol/mg protein. The “Uterine PRc” value ([4]; MCDF 100 μmol/kg) was 811 ± 26.4 fmol/mg protein, the “Uterine PRn” value ([4]; MCDF 100 μmol/kg) was 240 ± 26.1 fmol/mg protein and the “constitutive uterine hepatic progesterone receptor levels” value ([4]; MCDF 50 and 100 μmol/kg) was “dose dependent decrease”. For the same molecule, the “Hepatic PRc” value ([4]; Table 11, cotreatment with E-2) was 108.9 ± 11.1 fmol/mg protein, the “Hepatic PRn” value ([4]; Table 11, cotreatment with E-2) was 6.4 ± 1.0 fmol/mg protein and the “Uterine PRc” value ([4]; Table 11, cotreatment with E-2) was 941.2 ± 45.1 fmol/mg protein. For the same molecule, the “Uterine PRn” value ([4]; Table 11, cotreatment with E-2) was 602 ± 11.4 fmol/mg protein, the “Hepatic PRc” value ([4]; rat, in vivo) was 60.6 ± 8.4 fmol/mg protein and the “Hepatic PRn” value ([4]; rat, in vivo) was 5.1 ± 1.0 fmol/mg protein. For the same molecule, the “Uterine PRc” value ([4]; rat, in vivo) was 805.3 ± 29.0 fmol/mg protein, the “Uterine PRn” value ([4]; rat, in vivo) was 205 ± 10.6 fmol/mg protein and the “uterine and hepatic estrogen receptors and progesterone receptor levels, of corresponding levels with 17β-estradiol alone (3rd of four values)” value ([4]; rat, in vivo) was 36%. For the same molecule, the “uterine and hepatic estrogen receptors and progesterone receptor levels, of corresponding levels with 17β-estradiol alone (4th of four values)” value ([4]; rat, in vivo) was 75%, the “Hepatic ERc” value ([5]; MCDF 10 μmol/kg) was 6.6 ± 0.5 fmol/mg protein and the “Hepatic ERn” value ([5]; MCDF 10 μmol/kg) was 6.1 ± 1.0 fmol/mg protein. The “Uterine ERc” value ([5]; MCDF 10 μmol/kg) was 137.7 ± 11.6 fmol/mg protein, the “Uterine ERn” value ([5]; MCDF 10 μmol/kg) was 15.8 ± 1.9 fmol/mg protein and the “Hepatic ERc” value ([5]; MCDF 50 μmol/kg) was 4.6 ± 0.8 fmol/mg protein. For the same molecule, the “Hepatic ERn” value ([5]; MCDF 50 μmol/kg) was 3.5 ± 0.6 fmol/mg protein, the “Uterine ERc” value ([5]; MCDF 50 μmol/kg) was 110.3 ± 6.6 fmol/mg protein and the “Uterine ERn” value ([5]; MCDF 50 μmol/kg) was 13.2 ± 2.1 fmol/mg protein. For the same molecule, the “Hepatic ERc” value ([5]; MCDF 100 μmol/kg) was 3.1 ± 0.3 fmol/mg protein, the “Hepatic ERn” value ([5]; MCDF 100 μmol/kg) was 3.1 ± 0.7 fmol/mg protein and the “Uterine ERc” value ([5]; MCDF 100 μmol/kg) was 90.2 ± 11.2 fmol/mg protein. For the same molecule, the “Uterine ERn” value ([5]; MCDF 100 μmol/kg) was 11.5 ± 1.0 fmol/mg protein, the “constitutive uterine hepatic estrogen receptors” value ([5]; MCDF 50 and 100 μmol/kg) was “dose dependent decrease” and the “Hepatic ERc” value ([5]; Table 11, cotreatment with E-2) was 8.1 ± 1.2 fmol/mg protein. The “Hepatic ERn” value ([5]; Table 11, cotreatment with E-2) was 3.6 ± 0.9 fmol/mg protein, the “Uterine ERc” value ([5]; Table 11, cotreatment with E-2) was 93.5 ± 4.0 fmol/mg protein and the “Uterine ERn” value ([5]; Table 11, cotreatment with E-2) was 18.5 ± 1.2 fmol/mg protein. The “Hepatic ERc” value ([5]; rat, in vivo) was 3.7 ± 1.1, the “Hepatic ERn” value ([5]; rat, in vivo) was 3.1 ± 0.2 and the “Uterine ERc” value ([5]; rat, in vivo) was 67.8 ± 2.5. The “Uterine ERn” value ([5]; rat, in vivo) was 13.0 ± 1.1, the “uterine and hepatic estrogen receptors and progesterone receptor levels, of corresponding levels with 17β-estradiol alone (1st of four values)” value ([5]; rat, in vivo) was 43% and the “uterine and hepatic estrogen receptors and progesterone receptor levels, of corresponding levels with 17β-estradiol alone (2nd of four values)” value ([5]; rat, in vivo) was 59%. The “uterine wet weights compared to corn oil treated animals” value ([6]; MCDF alone) was “significantly decreased”, the “estradiol induced increase in uterine wet weight” value ([6]; co-treated animals) was “partially inhibited” and the “Uterine Wet Weight” value ([6]; cotreatment with E-2) was 0.255 ± 0.031 % body wt. For the same molecule, the “Uterine Wet Weight” value ([6]; rat, in vivo) was 0.090 ± 0.113 % body wt, the ERn ([7]; 2,3,7,8-TCDD (10 nM) + MCDF (15 μM)) was 147.5(9.6) fmol/mg protein and the ERn ([7]; 2,3,7,8-TCDD (10 nM) + MCDF (50 μM)) was 136.0(14.7) fmol/mg protein. For the same molecule, the ERn ([7]; 2,3,7,8-TCDD (10 nM) + MCDF (75 μM)) was 133.1(10.4) fmol/mg protein, the ERn ([7]; 2,3,7,8-TCDD (10 nM) + MCDF (100 μM)) was 123.1(7.1) fmol/mg protein and the ERn ([7]; 2,3,7,8-TCDD (10 nM) + MCDF (150 μM)) was 129.3(2.9) fmol/mg protein. For the same molecule, the ERn ([7]; 2,3,7,8-TCDD (25 nM) + MCDF (15 μM)) was 146.9(9.6) fmol/mg protein, the ERn ([7]; 2,3,7,8-TCDD (25 nM) + MCDF (50 μM)) was 85.5(16.5) fmol/mg protein and the ERn ([7]; 2,3,7,8-TCDD (25 nM) + MCDF (75 μM)) was 91.3(9.7) fmol/mg protein. For the same molecule, the ERn ([7]; 2,3,7,8-TCDD (25 nM) + MCDF (100 μM)) was 100.5 (10.4) fmol/mg protein, the ERn ([7]; 2,3,7,8-TCDD (25 nM) + MCDF (150 μM)) was 108.1(18.1) fmol/mg protein and the “ERn levels in MCF-7 cells” value ([7]; MCDF) was “significantly decreased”. The ERn ([7]; MCDF alone (15 μM)) was 207.5 (6.6) fmol/mg protein, the ERn ([7]; MCDF alone (50 μM)) was 171.6 (13.7) fmol/mg protein and the ERn ([7]; MCDF alone (100 μM)) was 135.8 (4.5) fmol/mg protein. For the same molecule, the ERn ([7]; MCDF alone (150 μM)) was 114.2 (7.9) fmol/mg protein, the “ERn levels, combined treatment vs either 2,3,7,8-TCDD or MCDF” value ([7]; MCDF plus 2,3,7,8-TCDD) was “not significantly different” and the “combined effects on ERn levels in MCF-7 cells” value ([7]; MCDF plus 2,3,7,8-TCDD) was “clearly not additive”. The “nuclear ER levels” value ([7]; TCDD (10 nM), MCDF (100 nM)) was “decrease in nuclear ER levels”, the ERn ([7]; alone (75 μM)) was 141.8 (13.6) fmol/mg protein and the ERn ([7]; estradiol (10 nM) + 2,3,7,8-TCDD (10 nM) plus MCDF (15 nM)) was 133.1 (14.3) fmol/mg protein. The ERn ([7]; estradiol (10 nM) + 2,3,7,8-TCDD (10 nM) plus MCDF (50 μM)) was 122.3 (5.5) fmol/mg protein, the ERn ([7]; estradiol (10 nM) + 2,3,7,8-TCDD (10 nM) plus MCDF (100 μM)) was 125.5 (9.7) fmol/mg protein and the ERn ([7]; estradiol (10 nM) + 2,3,7,8-TCDD (25 nM) plus MCDF (15 μM)) was 132.6 (2.1) fmol/mg protein. For the same molecule, the ERn ([7]; estradiol (10 nM) + 2,3,7,8-TCDD (25 nM) plus MCDF (50 μM)) was 130.5 (5.3) fmol/mg protein, the ERn ([7]; estradiol (10 nM) + 2,3,7,8-TCDD (25 μM) plus MCDF (100 μM)) was 123.8 (8.3) fmol/mg protein and the ERn ([7]; estradiol (10 nM) + MCDF (15 μM)) was 113.4 (3.9) fmol/mg protein. For the same molecule, the ERn ([7]; estradiol (10 nM) + MCDF (50 μM)) was 103.4 (17.6) fmol/mg protein and the ERn ([7]; estradiol (10 nM) + MCDF (100 μM)) was 106.4 (7.9) fmol/mg protein.
